# Measurements taken from patent US7867747B2, “Fibrinolytic metalloprotease and composition comprising the same” (priority 2006, dated 2011).
# Counter-ions that a name gives are not always drawn. Like-named read-outs stand apart in the source and are kept apart here.
# B1: recombinant protease: Zinc-dependent fibrinolytic metalloprotease, 359 amino acids (SEQ ID NO:2), about 39 kDa, from deep-sea sediment metagenome, expressed in E. coli, purified by chitin affinity … (protein)
# chain: MEPEPIKTCTVLENPGYQPIHAPTDVSPQPVLAAMEAVPVPTPPPTVDAVMLFRKKWRDGKILRVHFMDGDPDVHRKVEEVAHTWSRHANVRFKFVDDPAADIRISFTQPGSWSYLGTDALRIARSQSTMNFGWLTPRSPDSEYNRVVIHEFGHALGLVHEHQNPDNGIPWNKPAVYEYYSGPPNNWSKEQVDTNLFQQYSEDQVRFTGFDRESIMLYPIPNEFTVGDFEVGWNRDLSADDKEFIGRMYPKPANELIVDDPPRASEISRYGEIDTYTFLVTQKGSYRIETDGRTDLVMLLYGPEDDTKLIAADDDSGRRLNPRITEELDWGKYTVRLQHFSQRQTGKYAVGVYRDDAAE
# modifications: Protein sequence of coding metalloprotease ES6349
# Tests used:
# Assay type in all cases: biochemical
# [1] = tested on: zinc-dependent metalloprotease (purified recombinant enzyme)
# azocasein [2] = assay: Protease activity assay, release of acid-soluble material from azocasein; settings: 50 mM Tris-HCl pH 7.0, 50° C., 1 h, by purification step
# Procedure: Protease activity was determined by measuring the release of acid-soluble material from azocasein (Sigma, USA) (Windle, H. J. P. et al., Infect. Immun. Vol. 65, pp 3132-3137, 1997).
# (§1) Specifically, all assays were conducted in a 50 mM Tris-HCl (pH 7.0) buffer. Enzyme samples (100 μl) obtained in Example 2 were added to 100 μl of 1% (w/v) azocasein and the reaction mixture was incubated at 50° C. for 1 h and terminated by the addition of 400 μl of 10% (w/v) trichloroacetic acid. The precipitated protein was removed by centrifugation (12,000×g, 5 min), and the resulting supernatant was transferred to a clean tube containing 700 μl of 525 mM NaOH. Absorbance was measured at 442 nm.
# One unit of protease activity was defined as an amount required for producing enough acid-soluble material from azocasein to yield absorbance of 0.1 at 442 nm, following 1 h incubation at 50° C.
# azocasein [3] = assay: Effects of temperature and pH on enzyme activity (azocasein assay)
# Procedure: as §1
# The optimal temperature for protease activity was examined in the buffer used in the standard assay at various temperatures. The values on the ordinate are shown as percentages of the enzyme activity (100%) observed at 50° C.
# The optimal pH for the protease activity was determined in various buffers at 50° C. The buffers used were sodium acetate buffers (open rectangles, pH 5.0-6.0), Tris-HCl buffers (open triangles, pH 6.0-8.0) and glycine-NaOH buffers (open circles, pH 8.0-9.0).
# The values on the ordinate are shown as percentages of the enzyme activity (100%) observed at pH 7.0. […] The optimal pH for the activity of protease was 7.0 (FIG. 3B).
# [4] = tested on: fibrin (human fibrinogen clotted with human thrombin); assay: Fibrinolytic assay, hydrolysis of fibrin clots analysed by SDS-PAGE; settings: 37° C.
# Procedure: Fibrinolytic activity was determined using the method described by Datta et al. (Datta, et al., Arch. Biochem. Biophys. Vol. 317, pp 365-373, 1995) with minor modifications.
# Specifically, 10 μl of 1% human fibrinogen (Sigma, USA) solution (prepared in a 20 mM Tris/HCl (pH 7.4) buffer) was added to human thrombin (0.05 NIH unit, Sigma, USA), and then allowed to stand for 1 h at room temperature. […] The hydrolysis of fibrin by the enzyme was analyzed by SDS-PAGE (FIG. 4). 5 μl each of reaction solutions was obtained at various time intervals and analyzed using an 11% SDS-PAGE gel.
# [5] = 1 mM, pre-incubation 25° C. 30 min, 50 mM Tris-HCl pH 7.0, no addition = 100
molecule,measurement,setting,value
"c1cnc2c(c1)ccc1cccnc12 [1,10-phenanthroline]",effect on enzyme activity (in words),"[1]; 1 mM, as shown in Table 2",inhibited
same,Relative activity,[1]; [5],55%
[Ca+2].[Cl-].[Cl-] [CaCl2],effect on enzyme activity (in words),"[1]; 1 mM, as shown in Table 2",enhanced
same,Relative activity,[1]; [5],200%
[Cl-].[Cl-].[Co+2] [CoCl2],effect on enzyme activity (in words),[1],enhanced
same,Relative activity,[1]; 1 mM,280%
O=S(=O)([O-])[O-].[Cu+2] [CuSO4],Relative activity,[1]; [5],100%
"O=C(O)CN(CCN(CC(=O)O)CC(=O)O)CC(=O)O [EDTA, ethylenediaminetetraacetic acid]",effect on enzyme activity (in words),[1],inhibited
same,Relative activity,[1]; pH 7,27%
"O=C(O)CN(CCOCCOCCN(CC(=O)O)CC(=O)O)CC(=O)O [EGTA, ethylene glycol-bis(2-aminoethylether)-N,N,N′,N′-tetraacetic acid]",effect on enzyme activity (in words),"[1]; 1 mM, as shown in Table 2",inhibited
same,Relative activity,[1]; [5],21%
O=S(=O)([O-])[O-].[Fe+2] [FeSO4],Relative activity,[1]; [5],100%
"N=C(N)N [Guanidine hydrochloride, guanidine hydrochloride]",effect on enzyme activity (in words),[1]; 0.5 M,strongly inhibited
same,Relative activity,"[1]; 500 mM, pre-incubation 25° C. 30 min, 50 mM Tris-HCl pH 7.0, no addition = 100",22%
[Cl-].[Cl-].[Mg+2] [MgCl2],effect on enzyme activity (in words),"[1]; 1 mM, as shown in Table 2",inhibited
same,Relative activity,[1]; [5],20%
O=S(=O)([O-])[O-].[Ni+2] [NiSO4],effect on enzyme activity (in words),"[1]; 1 mM, as shown in Table 2",enhanced
same,Relative activity,[1]; [5],140%
"O=S(=O)(F)Cc1ccccc1 [PMSF, phenylmethylsulfonyl fluoride]",effect on enzyme activity (in words),"[1]; 1 mM, as shown in Table 2",no influence
same,Relative activity,[1]; [5],104%
"CCCCCCCCCCCCOS(=O)(=O)[O-].[Na+] [SDS, sodium dodecyl sulfate]",Relative activity,"[1]; 17 mM, pre-incubation 25° C. 30 min, 50 mM Tris-HCl pH 7.0, no addition = 100",9%
same,effect on enzyme activity (in words),[1]; 0.05% SDS,easily denatured
[Cl-].[Cl-].[Zn+2] [ZnCl2],effect on enzyme activity (in words),"[1]; 1 mM, as shown in Table 2",inhibited
same,Relative activity,[1]; [5],80%
B1,Specific activity,azocasein [2],"76,000 U/mg"
same,Specific activity,azocasein [2]; listed as Affinity chromatography,"3,400 U/mg"
same,Enzyme activity compared with the enzyme activity (100%) at 50° C.,azocasein [3]; at 40° C.,26%
same,Enzyme activity compared with the enzyme activity (100%) at 50° C.,azocasein [3]; at 60° C.,18%
same,optimal temperature for the activity of the protease,"azocasein [3]; standard assay buffer, 1 h",50 °C
same,optimal pH for the activity of protease,azocasein [3]; various buffers at 50° C.,7.0
same,hydrolysis of the β-chain of fibrin,[4]; after 30 min,partially hydrolyzed
same,hydrolysis of the α-chain of fibrin,[4]; after 1 h,completely hydrolyzed
same,hydrolysis of the γ-γ-chain of fibrin,[4]; after 1 h,completely hydrolyzed
same,hydrolysis of the β-chain of fibrin,[4]; after 2 h,not completely hydrolyzed
same,hydrolysis of the β-chain of fibrin,[4]; after 24 h (data not shown),not completely hydrolyzed
